Test results published in patent publication US20080009546A1 (Chevron U.S.A. Inc., priority 2005, published 2008).
Like-named read-outs stand apart in the source and are kept apart here.

Legend:
[1] = Dissolving compounds to make 10 mM stock solution; format: physicochemical; details: deionized water or assay friendly solvents, hot water
Procedure: Following assay establishment, the test compounds were tested for binding affinities. The concentrations selected for the experiments were chosen according to what was found for memantine in our assay. The first task was to dissolve the compounds and make up the 10 mM stock solution for further experiments. Those compounds that were made into salt format were easy to dissolve in deionized water, but the other compounds were difficult to bring into solution. Several “assay friendly” solvents have been tried, such as molecusol, acetic acid and propylene glycol followed by putting the vial into hot water.

C57/BL6 male mice [2] = details: for # of deaths / # of extensions: 6 mice; for MES-induced death: mice
C57/BL6 male mice [3] = experiment: Rotarod test (balance and coordination, side effects)
Procedure: The side effects of the compounds was primarily evaluated using the rotarod test, which mainly assesses the balancing and coordination of mice. The comparisons were made on fall time of the mice between the first measure (pre-treatment) and second measure taken 20 min after the drug/vehicle injection in the same group (paired t-test). […] Comparisons of the rotatod fall times after drug/vehicle dosing were made between drug treatment and control groups (unpaired t-test).

NMDA receptor = experiment: Whole-cell voltage-clamp recordings of NMDA evoked currents in hypocretin neurons (hypothalamic slices); format: cell-based, mouse; details: for inhibition of the peak amplitude of NMDA evoked currents: bath application, -60 mV, mean±SEM
[4] = tested on: primary neurons from rat cerebral cortex; experiment: NMDA-induced LDH release assay in primary cortical neurons (neuroprotection); format: cell-based
Procedure: The neuroprotective properties of drugs have been studied in vitro, using neurons cultured from cortex, cerebellum or retina. […] Neurotoxicity is determined in this assay by measuring lactate dehydrogenase (LDH), a method which is simple, accurate and reproducible. We conducted pilot studies to test if poly-lysine-coated plates would be suitable as a matrix upon which to plate fetal neurons, compared to astrocyte-coated plates. We also compared the use of growth medium to neurobasal medium supplemented with B27 in the pilot experiments. The concentrations of NMDA (300-500 μM), glycine (10-50 μM), and memantine (10-100 μM) were varied, and optimum concentrations and times determined from these pilot studies were then chosen for the main study. The assay is described below.
Fetal rat neocortical cells were cultured on a mouse astroglial feeder layer. To obtain mouse astroglial cells for the feeder layer, cortices were harvested from 1-day old Swiss Webster mice (Charles River, Hollister, Calif.) according to the procedure described by Rose et al (1993). After dissecting cortices in ice-cold dissecting medium, they were minced and incubated in 0.09% trypsin in media stock for 1 hr, followed by resuspension in growth medium containing 10% equine serum and 10% fetal bovine serum. A single-cell suspension was obtained by triturating through fire-bored glass pipettes, and the resulting cell suspension was plated at a density of 0.5-0.75 hemispheres/24-well plate/9.6 ml, with 0.4 ml/well. Plates were incubated in a humidified incubator at 37° C., 5% CO2. Astroglial cells become confluent in about 2-3 weeks, at which time these cultures are ready to be used as feeder layers upon which neuronal cultures can be plated. Neuronal cells were obtained from gestational Sprague-Dawley rats E16-E18, using a similar dissection procedure. Rat embryos were dissected to obtain cortical tissue, which was plated as a single-cell suspension at a density of 1.4 hemispheres/24-well plate/9.6 ml, with 0.4 ml/well. These cells were plated on the existing astroglial feeder layer, and were incubated at 37° C., 5% CO2. After 5 days in culture, cytosine arabinoside (10 μM) was added to the wells to inhibit glial cell proliferation, and after 24 hours, the medium was replaced with fresh growth medium. Cells were fed with fresh growth medium every 2 days, until the experiments were performed. For coating plates with poly-lysine, we used poly-d-lysine hydrobromide (Sigma Cat # P7280) at a concentration of 0.1 mg/ml to coat each well using a minimum volume of 0.2 ml/well. After coating for 5 minutes, the solution was aspirated and wells were rinsed thoroughly with sterile tissue culture grade water. After drying for 2 hours, plates were ready for use. Neuronal cultures were plated onto poly-lysine-coated plates at the same density as above. For the pilot study, some of the cultures were fed with 1:1 ratio of growth medium: neurobasal medium (GIBCO)+B-27 supplement (2%), while the rest of the cultures were fed with growth medium alone (Losi et al., 2006). For the main study, we used astroglial feeder layers to plate the neuronal cultures, and used a mix (1:1) of growth medium with neurobasal medium+B-27 supplement for feeding the cultures.
After 11-14 days in culture, neuronal cells were confluent and experiments were performed. Cells were washed twice using sterile Locke's buffer (154 mM NaCl, 5.6 mM KCl, 2.3 mM CaCl2, 3.6 mM NaHCO3, 5.5 mM D-glucose, 5 mM HEPES, pH 7.4), and then exposed to the various treatment compounds. […] After 15 minutes, cultures were washed twice and incubated overnight in media stock. After 24 hours, supernatants and lysates were collected to measure LDH activity. LDH activity was measured by the reduction of NAD, which was utilized in the stoichiometric conversion of a tetrazolium dye using a kit (Sigma TOX-7). Supernatants were removed from the wells and centrifuged before LDH measurements. The adherent cells were lysed to obtain total LDH. […]

C57/BL6 male mice [5] = experiment: Pentylenetetrazol (PTZ)-induced seizure/death model; format: in vivo, mouse; details: for # mice with L3 seizure / # mice with L4 seizure / # of deaths within 30 min: 6 mice; for # of deaths within 30 min / PTZ-induced death: PTZ 100 mg/kg; for Time to death: mice that died within 30 min
Procedure: Although the protection against death is the key endpoint, other effects of the compounds on PTZ-induced seizures were also assessed using multiple parameters. For the mice that did die within the 30 minute observation window, the time of death was also compared. […] The seizure occurrence rate, onset time and number of level 3 (L3) seizure (repetitive seizures but the animal can still stand) and level 4 (L4) seizure (repetitive seizures and the animal loses righting) are also analyzed. The MDT compound (30 mg/kg) treated groups show a certain degree of improvement compared to control. No data from MK801 or memantine were included because the seizures occurring under these treatments are totally different from the control or MDT injected groups due to side effects (“high jumping”).

[6] = NMDA 300 uM + MK801 1 uM, Plate #4, poly-lysine-coated rat neurons, GM/NB + B-27 fed, 24 hour incubation
[7] = NMDA 300 uM + MK801 1 uM, Plate #5, astrocyte-coated rat neurons, GM fed, 24 hour incubation
[8] = NMDA 300 uM + MK801 1 uM, astrocyte-coated rat neurons, GM/NB + B-27 fed, 24 hour incubation
[9] = NMDA 500 μM + MK801 1 μM, astrocyte-coated rat neurons, GM/NB + B-27 fed, 21 hour incubation
[10] = NMDA 500 uM + MK801 1 uM, poly-lysine-coated rat neurons, GM/NB + B-27 fed, 40 hour incubation

O=C(O)C12CC3C4CC5(C(=O)O)CC3C(C1)C(C5)C4C2 [MDT-20]
dissolution for 10 mM stock solution [1]: did not go into solution, or came out with time

CC12CC3CC4C1CC1(N)CC2C(C3)C4(C)C1 [MDT-23, 4-amino-1,6-dimethyl-diamantane]
Extension rate (C57/BL6 male mice [2]; 10 mg/kg i.p.): 1.00
Mortality rate (C57/BL6 male mice [2]; 10 mg/kg i.p.): 0.67
# of deaths (C57/BL6 male mice [2]; 10 mg/kg i.p.): 4
# of extensions (C57/BL6 male mice [2]; 10 mg/kg i.p.): 6
Extension rate (C57/BL6 male mice [2]; 30 mg/kg i.p.): 1.00
Mortality rate (C57/BL6 male mice [2]; 30 mg/kg i.p.): 0.17
# of deaths (C57/BL6 male mice [2]; 30 mg/kg i.p.): 1
# of extensions (C57/BL6 male mice [2]; 30 mg/kg i.p.): 6
MES-induced death (C57/BL6 male mice [2]; 10 and 30 mg/kg i.p.): dose dependent reduction in MES-induced death
Fall Time (C57/BL6 male mice [3]; after, 20 min after 10 mg/kg i.p.): 42.98 ± 2.82 min
Fall Time (C57/BL6 male mice [3]; after, 20 min after 30 mg/kg i.p.): 31.37 ± 3.83 min
Fall Time (C57/BL6 male mice [3]; before (pre-treatment), 10 mg/kg group): 28.63 ± 3.10 min
Fall Time (C57/BL6 male mice [3]; before (pre-treatment), 30 mg/kg group): 39.77 ± 6.14 min
rotarod fall time, pre-treatment vs 20 min after injection (C57/BL6 male mice [3]; high dose 30 mg/kg i.p., paired t-test): loss of performance
rotarod performance after dosing vs. control (C57/BL6 male mice [3]; high dose 30 mg/kg i.p., unpaired t-test): statistically significant decreases in rotarod performance
inhibition of the peak amplitude of NMDA evoked currents (NMDA receptor; 10 μM): 11.6±4.3%
inhibition of the peak amplitude of NMDA evoked currents (NMDA receptor; 100 μM): 22.9±9.3%
reversibility of inhibition of NMDA evoked currents upon washout (NMDA receptor; washout of the compound): not reversible
EC50 ([4]; Rattus norvegicus, Primary neuron, two experiments, 300 uM NMDA + 50 μM glycine 15 minutes, LDH after 24 hours, read-out: average EC50 (±SD), NMDA-induced LDH release): 11.1 ± 9.3 µM
# L3 per mouse (C57/BL6 male mice [5]; 10 mg/kg i.p.): 4.67 ± 1.65
# L4 per mouse (C57/BL6 male mice [5]; 10 mg/kg i.p.): 1.67 ± 0.49
L3 onset time (C57/BL6 male mice [5]; 10 mg/kg i.p.): 3.00 ± 0.20 min
L3 seizure rate (C57/BL6 male mice [5]; 10 mg/kg i.p.): 0.50
L4 onset time (C57/BL6 male mice [5]; 10 mg/kg i.p.): 13.80 ± 4.40 min
L4 seizure rate (C57/BL6 male mice [5]; 10 mg/kg i.p.): 1.00
Mortality rate (C57/BL6 male mice [5]; 10 mg/kg i.p.): 0.50
# mice with L3 seizure (C57/BL6 male mice [5]; 10 mg/kg i.p.): 3
# mice with L4 seizure (C57/BL6 male mice [5]; 10 mg/kg i.p.): 6
# of deaths within 30 min (C57/BL6 male mice [5]; 10 mg/kg i.p.): 3
Time to death (C57/BL6 male mice [5]; 10 mg/kg i.p.): 14.00 ± 6.60 min
# L3 per mouse (C57/BL6 male mice [5]; 30 mg/kg i.p.): 3.83 ± 2.44
# L4 per mouse (C57/BL6 male mice [5]; 30 mg/kg i.p.): 1.00 ± 0.0
L3 onset time (C57/BL6 male mice [5]; 30 mg/kg i.p.): 5.00 ± 1.90 min
L3 seizure rate (C57/BL6 male mice [5]; 30 mg/kg i.p.): 1.00
L4 onset time (C57/BL6 male mice [5]; 30 mg/kg i.p.): 19.80 ± 4.20 min
L4 seizure rate (C57/BL6 male mice [5]; 30 mg/kg i.p.): 1.00
Mortality rate (C57/BL6 male mice [5]; 30 mg/kg i.p.): 1.00
average time of death (C57/BL6 male mice [5]; 30 mg/kg i.p., mice that died within 30 minute window): 22 ± 2.9 min
# mice with L3 seizure (C57/BL6 male mice [5]; 30 mg/kg i.p.): 6
# mice with L4 seizure (C57/BL6 male mice [5]; 30 mg/kg i.p.): 6
# of deaths within 30 min (C57/BL6 male mice [5]; 30 mg/kg i.p.): 6
Time to death (C57/BL6 male mice [5]; 30 mg/kg i.p.): 22.00 ± 2.90 min
PTZ-induced death (C57/BL6 male mice [5]; 10 and 30 mg/kg i.p., 30 min observation): a certain reduction in PTZ-induced death
PTZ-induced death (C57/BL6 male mice [5]; high dose 30 mg/kg i.p., 30 min observation): died within 30 minutes

C[C@]12N[C@H](Cc3ccccc31)c1ccccc12 [MK-801, reference compound]
Extension rate (C57/BL6 male mice [2]; 0.5 mg/kg i.p.): 0.50
Mortality rate (C57/BL6 male mice [2]; 0.5 mg/kg i.p.): 0.50
MES-induced death (C57/BL6 male mice [2]; 0.5 mg/kg i.p.): little effect compared to control
# of deaths (C57/BL6 male mice [2]; 0.5 mg/kg i.p.): 3
# of extensions (C57/BL6 male mice [2]; 0.5 mg/kg i.p.): 3
hyperactivity (side effect) (C57/BL6 male mice [3]; 1 mg/kg i.p.): observed
inhibition of the peak amplitude of NMDA evoked currents (NMDA receptor; 100 nM): 58±9.4%
% (Control Wash = 100) [4, 6]: 143%
Secreted LDH (Avg) [4, 6]: 0.62
Secreted/(total + secreted) (Avg) [4, 6]: 15.63
Total LDH (Avg) [4, 6]: 3.34
% (Control Wash = 100) [4, 7]: 92%
Secreted LDH (Avg) [4, 7]: 0.18
Secreted/(total + secreted) (Avg) [4, 7]: 5.43
Total LDH (Avg) [4, 7]: 3.18
% (Control Wash = 100) [4, 8]: 241%
Secreted LDH (Avg) [4, 8]: 0.74
Secreted/(total + secreted) (Avg) [4, 8]: 17.39
Total LDH (Avg) [4, 8]: 3.51
% (Control Wash = 100) [4, 9]: 125%
Secreted LDH (Avg) [4, 9]: 0.43
Secreted/(total + secreted) (Avg) [4, 9]: 10.39
Total LDH (Avg) [4, 9]: 3.71
% (Control Wash = 100) [4, 10]: 96%
Secreted LDH (Avg) [4, 10]: 0.36
Secreted/(total + secreted) (Avg) [4, 10]: 11.04
Total LDH (Avg) [4, 10]: 2.90
Mortality rate (C57/BL6 male mice [5]; 1.0 mg/kg i.p.): 0
PTZ-induced death (C57/BL6 male mice [5]; 1 mg/kg i.p.): full protection
# of deaths within 30 min (C57/BL6 male mice [5]; 1.0 mg/kg i.p.): 0
